Measured values reported in patent US20250151812A1, “METHOD AND INHALER FOR PROVIDING TWO OR MORE […] INHALATION” (Syqe Medical Ltd., priority 2018, published 2025).
Values joined by “and” are separate entries in the source; they are usually repeats but may differ in a detail not shown here. Equal values may be shown once.

Key:
Assay type in all cases: physicochemical
[1] = Bediol strain Cannabis, two heating durations; aerosol analyzed using UPLC (Table 3, FIG. 17B); details: 180 C., 1.1 L/min; for mg API: in aerosol, 13.5 mg Bediol strain Cannabis; for total (acid + neutral form): sum for the acid and its neutral form, 13.5 mg Bediol
Method: In the following related experiment performed by the inventors, samples having 13.5 mg of Bediol strain Cannabis (Bedrocan, Holland) were tested using two operation profiles and compared to a raw material. The samples were heated to a temperature of 180° C. under an airflow rate of 1.1 liter/minute. In the first operation profile, the heating duration was 1.5 seconds; in the second operation profile, the heating duration was 2.5 seconds. Aerosol was collected, extracted and analyzed using UPLC. As can be observed from this example, under certain conditions, lengthening the heating duration increased the CBD/total THC ratio (from about 0.79 in the first operation profile to about 0.96 in the second operation profile). As can also be observed from this example, under certain conditions, lengthening the heating duration released higher amounts of all active substances tested (CBDA, CBD, THCA, Δ9-THC). (API-active pharmaceutical ingredient).

[2] = FIG. 6: CBDA/CBD and THCA/Δ9-THC ratios at two operation profiles; aerosol analyzed using UPLC; details: 13.5 mg cannabis; 180° C., airflow 1 liter/minute; 1.5 seconds versus 2.5 second
Method: Reference is now made to FIG. 6, which is a bar chart of the ratios between CBDA/CBD and THCA/Δ9-THC received at various operation profiles according to some embodiments of the invention. Samples having 13.5 mg of a defined type of cannabis were tested at two operation profiles. The samples were heated to a temperature of 180° C. under an airflow of 1 liter/minute) for 1.5 seconds and 2.5 second. Aerosol was collected, extracted and analyzed using UPLC.

[3] = Effect of airflow rate on decarboxylation of THCA; aerosol from heated Bedrocan cannabis samples analyzed in UPLC; details: 13.5 mg Bedrocan sample, 185° C., 1620 ms
Method: In the following experiment performed by the inventors, the effect of airflow rate on decarboxylation of THCA was tested. 14 samples (7 samples tested in each of the profiles) of 13.5 mg each of Bedrocan strain (Bedrocan, Holland) were heated for 1620 ms to a temperature of 185° C. In a first operation profile (upper table), the rate of flow through the sample was set to 1.1 L/min; in a second operation profile (lower table), the rate of airflow through the sample was set to 0.85 L/min. Aerosol was collected and extracted and analyzed in UPLC (Ultra performance liquid chromatography) for the presence of THCA and Δ9-THC. As can be observed, in this example, under certain conditions, increasing the rate of flow through the sample increased the percentage of THCA in the aerosol. (As shown below, the percentage of THCA was calculated as the amount of THCA divided by the total amount of both THCA and Δ9-THC.) The graph of FIG. 17A presents the results shown in the table below.

[4] = Various operation profiles (heating temperature, airflow rate, heating duration); aerosol analyzed in UPLC for THCA and Δ9-THC
Method: In another experiment performed by the inventors, various operation profiles were tested. In lines 1-9 of the table below, a change in the heating temperature was tested, while the rate of airflow and the heating duration remained constant. Aerosol was collected and extracted and analyzed in UPLC for the presence of THCA and Δ9-THC. A graph presenting the results obtained for the various heating temperatures is shown in FIG. 7 and further discussed below; in lines 10-14 of the table, a change in the rate of airflow was tested, while the temperature and the heating duration remained constant; in lines 17-19 of the table, a change in the heating duration was tested, while the temperature and rate of airflow remained constant. As can be observed, in this example, under certain conditions, increasing the heating temperature (while maintaining other parameters (flow rate, duration of heating) constant) reduced the percentage of THCA released; lengthening the heating duration (while maintaining other parameters constant) reduced the percentage of THCA released. (As shown below, the percentage of THCA was calculated as the amount of THCA divided by the total amount of both THCA and Δ9-THC.)
Reference is now made to FIG. 7 which is a graph showing the effect of the temperature on the relative amount of THCA vaporized. The experiment procedure and the results are also discussed above and presented in Table 2 Samples having 13.5 mg of a defined type of cannabis were tested by applying air at 1.1 liter/minute for 1.5 seconds at various temperatures from 160°° C. to 200° C. The relative amount of THCA were measured against the total amounts of Δ9-THC+THCA. […] Accordingly, by selecting the temperature and/or the time-temperature profile, the amount of THCA provided during inhalation may be controlled (e.g., selected by the user).

SMILES | mg API ([1]; heating duration 1500 ms) | mg API ([1]; heating duration 2500 ms) | amount of acids left after vaporization, by heating duration [2] | total (acid + neutral form) ([1]; heating duration 1500 ms) | total (acid + neutral form) ([1]; heating duration 2500 ms) | Δ9-THC ([3]; flow rate 0.85 L/min) | Δ9-THC ([3]; flow rate 1.1 L/min) | Δ9-THC ([4]; 13.5 mg cannabis, 1.1 L/min, 1500 ms, 160° C.) | Δ9-THC ([4]; 13.5 mg cannabis, 1.1 L/min, 1500 ms, 175° C.) | Δ9-THC ([4]; 13.5 mg cannabis, 1.1 L/min, 1500 ms, 200° C.) | Δ9-THC ([4]; 175 C., 1500 ms, flow 1.2 L/min) | Δ9-THC ([4]; 175 C., 1500 ms, flow 1.3 L/min) | Δ9-THC ([4]; 185° C., 1.1 L/min, heating 600 ms) | Δ9-THC ([4]; 185° C., 1.1 L/min, heating 800 ms) | Δ9-THC ([4]; 185° C., 1.1 L/min, heating 1000 ms)
C=C(C)[C@@H]1CCC(C)=C[C@H]1c1c(O)cc(CCCCC)cc1O [CBD, Cannabidiol, reference compound] | 0.201 mg | 0.477 mg |  |  |  |  |  |  |  |  |  |  |  |  | 
C=C(C)[C@@H]1CCC(C)=C[C@H]1c1c(O)cc(CCCCC)c(C(=O)O)c1O [CBDA, cannabidiolic acid] | 0.125 mg | 0.188 mg | the longer the operation profile the less amount of acids | 0.311 | 0.642 |  |  |  |  |  |  |  |  |  | 
CCCCCc1cc(O)c2c(c1)OC(C)(C)[C@@H]1CCC(C)=C[C@@H]21 [Δ9-THC, Δ9-tetrahydrocannabinol, reference compound] | 0.254 mg | 0.498 mg |  |  |  | 0.521 mg and 0.559 mg and 0.529 mg and 0.486 mg and 0.434 mg and 0.357 mg and 0.365 mg | 0.462 mg and 0.452 mg and 0.445 mg and 0.484 mg and 0.527 mg and 0.431 mg and 0.587 mg | 0.220 mg and 0.201 mg and 0.208 mg | 0.475 mg and 0.461 mg and 0.478 mg | 0.972 mg and 0.831 mg and 0.790 mg | 0.467 mg and 0.423 mg | 0.459 mg and 0.468 mg and 0.440 mg | 0.093 mg | 0.315 mg | 0.620 mg
